Results: PubChem BioAssay (NCI)
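Results reflect a 48-hour exposure of cells in 96-well plates to compound at five concentrations. GI50 is the concentration that inhibits growth by half. Definition used: TGI = concentration required for complete inhibition of growth.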

Experiments:
Assay in all cases: NCI anticancer screen, dose series, 48 h
NCI-H23 lung = test system: NCI-H23 lung
HL-60(TB) leukemia = test system: HL-60(TB) leukemia
TK-10 renal = test system: TK-10 renal
SW-620 colon = test system: SW-620 colon
OVCAR-3 ovarian = test system: OVCAR-3 ovarian
A549 NSCLC = test system: A549 NSCLC
SF-268 CNS = test system: SF-268 CNS
SK-MEL-28 melanoma = test system: SK-MEL-28 melanoma
LXFL 529 NSCLC = test system: LXFL 529 NSCLC
DLD-1 colon = test system: DLD-1 colon

Compound: COc1cc(Nc2ncccc2C(=O)NCc2cn(Cc3cccc(Oc4ccccc4)c3)nn2)cc(OC)c1
- GI50 (NCI-H23 lung): 6.22 µM
- TGI (NCI-H23 lung): > 100 µM
- GI50 (HL-60(TB) leukemia): 3.97 µM
- TGI (HL-60(TB) leukemia): > 100 µM
- GI50 (TK-10 renal): 51.6 µM
- TGI (TK-10 renal): > 100 µM
- GI50 (SW-620 colon): 3.88 µM
- TGI (SW-620 colon): > 100 µM
- GI50 (OVCAR-3 ovarian): 3.69 µM
- TGI (OVCAR-3 ovarian): > 100 µM
- GI50 (A549 NSCLC): 4.02 µM
- TGI (A549 NSCLC): > 100 µM
- GI50 (SF-268 CNS): 5.43 µM
- TGI (SF-268 CNS): > 100 µM
- GI50 (SK-MEL-28 melanoma): 4.14 µM
- TGI (SK-MEL-28 melanoma): > 100 µM

Compound: CCN1CCN(C(=O)[C@@]2(C)CC[C@]3(C)CC[C@]4(C)C(=CC(=O)[C@@H]5[C@@]6(C)CC[C@H](OC7C[C@@H](O)[C@@H](O)C(C)O7)C(C)(C)[C@@H]6CC[C@]54C)[C@@H]3C2)CC1 (some centres undefined)
- GI50 (NCI-H23 lung): 2.36 µM
- TGI (NCI-H23 lung): 9.57 µM
- GI50 (HL-60(TB) leukemia): 0.939 µM
- TGI (HL-60(TB) leukemia): 1.91 µM
- GI50 (TK-10 renal): 0.806 µM
- TGI (TK-10 renal): 1.9 µM
- GI50 (SW-620 colon): 1.7 µM
- TGI (SW-620 colon): 6.36 µM
- GI50 (OVCAR-3 ovarian): 8.75 µM
- TGI (OVCAR-3 ovarian): 16.7 µM
- GI50 (A549 NSCLC): 1.76 µM
- TGI (A549 NSCLC): 8.94 µM
- GI50 (SF-268 CNS): 1.6 µM
- TGI (SF-268 CNS): 6.18 µM
- GI50 (SK-MEL-28 melanoma): 1.06 µM
- TGI (SK-MEL-28 melanoma): 2.25 µM

Compound: COc1ccccc1/C=N\N/C(N)=N\N=C\c1ccccc1OC
- GI50 (NCI-H23 lung): 0.618 µM
- TGI (NCI-H23 lung): > 31.2 µM
- GI50 (HL-60(TB) leukemia): 0.215 µM
- TGI (HL-60(TB) leukemia): 0.558 µM
- GI50 (TK-10 renal): 0.524 µM
- TGI (TK-10 renal): 8.89 µM
- GI50 (SW-620 colon): 0.376 µM
- TGI (SW-620 colon): 18.9 µM
- GI50 (OVCAR-3 ovarian): 0.157 µM
- TGI (OVCAR-3 ovarian): 0.393 µM
- GI50 (A549 NSCLC): 1.55 µM
- TGI (A549 NSCLC): > 100 µM
- GI50 (SF-268 CNS): 0.432 µM
- TGI (SF-268 CNS): 26.9 µM
- GI50 (SK-MEL-28 melanoma): 2.64 µM
- TGI (SK-MEL-28 melanoma): 28.4 µM

Compound: COc1cc(-c2oc(=O)ccc2C#Cc2ccccn2)cc(OC)c1OC
- GI50 (NCI-H23 lung): 2.4 µM
- TGI (NCI-H23 lung): > 29.4 µM
- GI50 (HL-60(TB) leukemia): 2.14 µM
- TGI (HL-60(TB) leukemia): 6.4 µM
- GI50 (TK-10 renal): 4.98 µM
- TGI (TK-10 renal): > 100 µM
- GI50 (SW-620 colon): 2.28 µM
- TGI (SW-620 colon): > 100 µM
- GI50 (OVCAR-3 ovarian): 0.733 µM
- TGI (OVCAR-3 ovarian): 2.76 µM
- GI50 (A549 NSCLC): 4.15 µM
- TGI (A549 NSCLC): > 100 µM
- GI50 (SF-268 CNS): 5.56 µM
- TGI (SF-268 CNS): > 100 µM
- GI50 (SK-MEL-28 melanoma): 3.34 µM
- TGI (SK-MEL-28 melanoma): > 100 µM

Compound: CSc1nc(=O)n(CCC#N)nc1SC
- TGI (NCI-H23 lung): > 100 µM
- TGI (HL-60(TB) leukemia): 30.7 µM
- TGI (TK-10 renal): > 100 µM
- TGI (SW-620 colon): 58.3 µM
- TGI (OVCAR-3 ovarian): 32 µM
- TGI (A549 NSCLC): > 100 µM
- TGI (SF-268 CNS): 53.1 µM
- TGI (SK-MEL-28 melanoma): 47.8 µM

Compound: O=C(O)c1nnsc1-c1ccc(-c2snnc2C(=O)O)cc1
- TGI (NCI-H23 lung): > 100 µM
- TGI (HL-60(TB) leukemia): > 100 µM
- TGI (TK-10 renal): > 100 µM
- TGI (SW-620 colon): > 100 µM
- TGI (OVCAR-3 ovarian): > 100 µM
- TGI (A549 NSCLC): > 100 µM
- TGI (SF-268 CNS): > 100 µM
- TGI (SK-MEL-28 melanoma): > 100 µM

Compound: CN1CC(=O)N2Cc3ccccc3-n3cccc3C2C1 (centres undefined)
- TGI (NCI-H23 lung): > 100 µM
- TGI (LXFL 529 NSCLC): > 100 µM
- TGI (TK-10 renal): > 100 µM
- TGI (SW-620 colon): > 100 µM
- TGI (OVCAR-3 ovarian): > 100 µM
- TGI (A549 NSCLC): > 100 µM
- TGI (SF-268 CNS): > 100 µM
- TGI (SK-MEL-28 melanoma): > 100 µM
- TGI (DLD-1 colon): > 100 µM

Compound: COc1ccc(Sc2[nH]c(C(C)=O)c3ccccc23)cc1
- GI50 (NCI-H23 lung): 14.6 µM
- TGI (NCI-H23 lung): 41.5 µM
- GI50 (HL-60(TB) leukemia): 15 µM
- TGI (HL-60(TB) leukemia): 33.4 µM
- GI50 (TK-10 renal): 15 µM
- TGI (TK-10 renal): 37.5 µM
- GI50 (SW-620 colon): 12.5 µM
- TGI (SW-620 colon): 26.8 µM
- GI50 (OVCAR-3 ovarian): 12.2 µM
- TGI (OVCAR-3 ovarian): 24.6 µM
- GI50 (A549 NSCLC): 4 µM
- TGI (A549 NSCLC): 51.3 µM
- GI50 (SF-268 CNS): 12.9 µM
- TGI (SF-268 CNS): 27.1 µM
- GI50 (SK-MEL-28 melanoma): 13.5 µM
- TGI (SK-MEL-28 melanoma): 26.3 µM

Compound: OC(CC1SCCCS1)c1ccccc1 (centres undefined)
- TGI (NCI-H23 lung): > 100 µM
- TGI (LXFL 529 NSCLC): > 100 µM
- TGI (HL-60(TB) leukemia): > 100 µM
- TGI (TK-10 renal): > 100 µM
- TGI (SW-620 colon): > 100 µM
- TGI (OVCAR-3 ovarian): > 100 µM
- TGI (A549 NSCLC): > 100 µM
- TGI (SF-268 CNS): > 100 µM
- TGI (DLD-1 colon): > 100 µM
